Results reported in patent publication US20190000850A1, “COMBINATION CANCER THERAPY” (The Regents of the University of California, priority 2015, published 2019).
“Also recorded” adds a separate entry of the source.

Experiments:
CEM T-ALL cells = experiment: ssDNA (F7-26) and pH2A.X measurement by FACS; type: cell-based; conditions: 3-AP 500 nM; 0.5, 4 and 18 h
Procedure: Cells were harvested and fixed and permeabilized with cytofix/cytoperm (BD biosciences) for 15 min in dark on ice. Cells were washed and subsequently resuspended in 100 μL 1× Perm/wash buffer (BD Sciences) for 15 min on ice. Cells were washed and subsequently resuspended in 50 μL with phospho-Histone H2A.X (Ser139) antibody conjugated to fluorochrome FITC (EMD Milipore, 1:800 dilutions in perm/wash) for 20 min in dark at ambient temperature. […] Cells were harvested and fixed with ice-cold methanol:PBS (6:1) for 24 h. Staining with F7-26 monoclonal antibody (Mab) was performed according to manufacturer's instructions (EMD Milipore). Fixed cells were resuspended in 250 μL of formamide and heated in a water bath at 75° C. for 10 min. Cells were then allowed to return to room temperature and then washed with 2 ml of 1% non-fat dry milk in PBS for 15 min. Subsequently, cells were resuspended in 100 μL of anti-ssDNA Mab F7-26 (EMD Milipore, 1:10 in 5% FBS in PBS) and incubated for 45 min at room temperature. Cells were washed with PBS and stained with 100 μL of fluorescence-conjugated goat anti-mouse IgM antibody (Santa Cruz Biotechnology, 1:50) for 45 min at room temperature.

CEM cells [1] = experiment: Mass spectrometric assay of de novo (RNR) and salvage (dCK) contribution to dCTP and DNA-C; type: cell-based
Procedure: To analyze the differential utilization of de novo and nucleotide biosynthetic salvage pathways, cultured cells were incubated with stable isotope labeled DNA precursors. […] Extracted dNTP and DNA were analyzed in a triple quadrupole mass spectrometer (QQQ) using multiple reaction monitoring (MRM). The first (Q1) and third (Q3) quadrupoles function as mass filters while the second (Q2) quadrupole serves as a collision chamber. […] In Q2, the glycosidic bond of the selected dC is cleaved, releasing a protonated nucleobase (NB) fragment and a neutral deoxyribose (dR) molecule. The m/z specific NB fragments from dC is separated in Q3 and detected to generate ion chromatograms. […] Each identifier corresponded to a specific biosynthetic pathway and is defined as [x;y], where “x” is the number of heavy isotope-labeled atoms in NB and “y” is the number of heavy isotope atoms in dR. […] According to current biochemical maps of nucleotide metabolism, the [7;5] identifier can only arise from salvaging [U-^13C9,^15N3]dC into newly synthesized DNA. In contrast, a dC with a [0,5] identifier is a product of the de novo pathway. The ratio of the peak areas in the ion chromatograms of salvage [7;5] and de novo [0;5] identifiers describes the relative contributions of the two biosynthetic routes to the dCTP pool used for DNA replication.
(§4) The cells were incubated for 18 h or as indicated in the text before samples collection and processing.
Genomic DNA was extracted using the Quick-gDNA MiniPrep kit (Zymo Research, D3021) and hydrolyzed to nucleosides using the DNA Degradase Plus kit (Zymo Research, E2021) following manufacturer-supplied instructions. In the final step of DNA extraction, 50 μL of water was used to elute the DNA. A nuclease premix solution was prepared by mixing 10× buffer, DNA degradase Plus™ and water in the ratio of 2.5/1/1.5 (v/v/v). DNA hydrolysis reaction was prepared in mass spec vials by mixing 5 μL of the nuclease premix solution (5 U of enzyme) and 20 μL of eluted genomic DNA, the total volume becomes 25 μL. The samples were tapped and flicked downward prior to overnight before incubation at 37° C.
Cells were collected into microcentrifuge tube and centrifuged (450×g, 4 min, 4° C.). The supernatant was carefully aspirated. The cells were washed twice by the addition of 1 mL of cold PBS and centrifugation (450×g, 4 min 4° C.). PBS washes were aspirated. Thereafter, cells were lysed in 40 μL of 70% methanol/water (v/v), vortexed (30 s) and incubated on ice for 10 min. Then 40 μL of chloroform (Fisher) was added, vortexed (30 s) and incubated on ice for another 10 min. The samples were then centrifuged at max speed for 10 min at 4° C. Finally, the supernatant was transferred (≈25 μL) into a mass spec vial.
For genomic DNA and media analysis, an aliquot of DNA hydrolysis or media samples (20 μL) was injected directly onto a porous graphitic carbon column (Thermo Fisher Scientific Hypercarb, 100×2.1 mm, 5 μm particle size) equilibrated in solvent A (water/acetonitrile/formic acid, 95/5/0.2, v/v/v) and eluted (200 μL/min) with an increasing concentration of solvent B (acetonitrile/water/formic acid, 90/10/0.2, v/v/v): min/% B/flow rate (μL/min); 0/0/200, 5/0/200, 10/15/200, 20/15/200, 21/40/200, 25/50/200, 26/100/700, 30/100/700, 3I/O/700, 34/0/700, 35/0/200).

[2] = tested on: p185^BCR-ABLArf^−/− pre-B cells; experiment: dCTP pool and DNA-C measurement with [U-^13C9,^15N3]dC and [U-^13C6]glucose; type: cell-based, mouse; conditions: 3, 6, 9 and 12 h treatment
Procedure: Therefore, p185^BCR-ABLArf^−/− pre-B cells were labeled with [U-^13C9,^15N3]dC and [U-^13C6]glucose to measure the contribution of salvage pathway via dCK and de novo pathway via RNR, respectively.
as §4

[3] = Solubility study in phosphate buffer solution; type: physicochemical; conditions: aqueous buffer
leukemia cell growth = experiment: IC50 (cytotoxicity assay) of RNR inhibitors, Table 1; type: cell-based; conditions: 3-AP: cell type independent
Procedure: (§1) Cells were plated in a 384-well plate (1,000 cells/well for suspension cell lines and 500 cells/well for adherent cell lines in 30 μL). For suspension cell lines, the plate was incubated in 37° C. for 1 h to let the cells settle. For adherent cell lines, the plate was incubated overnight to allow the cells to seed. During incubation, drugs were diluted to desired concentration by serial dilution, vehicle condition was created by adding equivalent amount of DMSO. After incubation, 10 μL of diluted drugs were added to each well, and incubated for 72 h. After incubation, Cell TiterGlo reagent was added to each well according to manufacturer's instructions (Promega, CellTiter-Glo® Luminescent Cell Viability Assay). The plates were shaken for 2 min and incubated in dark for 8 min. Luminescence readings were obtained with luminometer (Molecular devices, SpectraMax).

[4] = tested on: dCK activity in p185^BCR-ABLArf^−/− pre-B cells; experiment: ^3H-FAC uptake to evaluate dCK activity; type: cell-based, mouse; conditions: after 1 h with 3-AP treatment
CEM cells [5] = experiment: Inhibition of CEM cell growth by RNR inhibitors, 72 h; type: cell-based
Procedure: as §1

CEM-R-EYFP = experiment: DNA-G biosynthesis labeling in isogenic CEM-R line; type: cell-based; conditions: 6-TG treatment
Procedure: (§2) We utilized an isogenic cell line, CEM-R (Owen 1992), which lacks the enzymes dCK and HPRT that are necessary for the salvage pathways for DNA-G biosynthesis. CEM-R cells were engineered to express enhanced yellow fluorescent protein (CEM-R-EYFP, a negative control) and human HPRT (CEM-R-HPRT) and were confirmed by WB. The labeled media contained […] [U-^13C6]glucose to represent the de novo contribution and 5 μM [^15N5]dG to represent salvage pathways, particularly HPRT-dependent nucleobase salvaging. CEM-R-EYFP relied exclusively on the de novo pathway for the DNA-G biosynthesis. In contrast, CEM-R-HPRT utilized both de novo and nucleobase salvage pathways nearly equally.
(§3) The pMSCV-HPRT-IRES-EYFP and pMSCV-TK1-IRES-EYFP plasmids were generated by inserting the human HPRT and TK1 coding sequence into the multiple cloning sites of the MSCV-IRES-EYFP plasmid, respectively. The pMSCV-hdCK-IRES-EYFP plasmid was generated as previously described (Laing RE 2010). Amphotropic retroviruses were generated by transient co-transfection of the MSCV retroviral plasmid and pCL-10A1 packaging plasmid into Phoenix-Ampho packaging cells. To generate EL4-EYFP, EL4-TK1, CEM-R-EYFP, CEM-R-dCK and CEM-R-HPRT lines, parental cells underwent spin-fection with the respective amphotropic retrovirus and were then sorted by flow cytometry to isolate pure populations of transduced cells. […]

CEM-R-HPRT = experiment: DNA-G biosynthesis labeling in isogenic CEM-R line; type: cell-based; conditions: 6-TG treatment
Procedure: as §2, §3

[6] = tested on: BCR-ABL p185^+/Arf^−/− pre B-ALL cells; experiment: Systemic pre B-ALL model in C57BL/6 mice, bioluminescence imaging, survival, body weight; type: in vivo; conditions: VE-822 40 mg/kg orally once daily
Procedure: All drugs for oral administration were solubilized in Prototype 9′ (PEG-200:Transcutol:Labrasol:Tween-80 mixed in 5:3:1:1 ratio) as single agents or in combination. For i.p. administration, drugs were solubilized in PEG-400 and 1 mM Tris-HCl at a 1:1 (v:v) ratio. Dasatinib (LC Laboratories) was solubilized in 80 mM citric acid (pH 3.1, Boulos et al.) and was administered at a dose of 10 mg/kg by oral gavage. 2×10^5 luciferase expressing p185 cells were injected intravenously into C57BL/6 female mice for leukemia induction. All drugs were administered starting 6 or, 7 days after intravenous cell inoculation, when animals had developed a significant leukemic burden as monitored by bioluminescence imaging (IVIS Bioluminescence Imaging scanner). Dosing schedules are indicated in the text and figure legends. Mice were observed daily; those that became moribund during the trials (paralysis of hind limbs, significant body weight loss) were sacrificed immediately. Kaplan-Meier curves and Bioluminescence quantifications were generated using GraphPad Prism (v6.0f for Mac).
Mice were anesthetized with 2% isoflurane followed by an intraperitoneal injection of 50 μL (50 mg/ml) substrate luciferin. Mice were imaged with IVIS Bioluminescence Imaging scanner after 10 minutes after luciferin administration. […]

CCRF-CEM T-ALL cells = experiment: EdU pulse assay of cell cycle progression after release from G1 arrest; type: cell-based; conditions: 12 h after release from G1
Procedure: Following release from G1, cells progress to early, mid and late S phase (defined as S1, S2 and S3, respectively) and G2/M. By 18 h following release in drug-free media, 42.5% of cells progressed to S3. […] Thus, dCK represents a resistance mechanism to ATR inhibition.
Cells were treated with a CDK4/6 inhibitor, PD-0332991 (Selleckchem) for 18 h to arrest in G1 phase. Subsequently, cells were washed and released into fresh media containing 10% FBS to monitor the progression of synchronized cells throughout the cell cycle by flow cytometry analysis.
For measuring cell cycle progression of synchronous population of cells, cells were first arrested in G1 phase, then washed and released in treated media. Before collecting and fixing cells at various time points, cells were pulse-labeled with 10 μM EdU for 1 h, and then click-labeled with azide-Alexa Fluor 647 (Invitrogen; Click-iT EdU Flow cytometry kit) according to manufacturer's protocol. Total DNA content was assessed by staining with FxCycle-Violet (Invitrogen) at 1 μg/mL final concentration in PBS containing 2% FBS.

[7] = tested on: Chk1 and Claspin phosphorylation in CEM T-ALL cells; experiment: Phosphoproteomics after G1 release; type: cell-based, human; conditions: with and without DI-82; 6 and 12 h after G1 release
Procedure: Cells were treated with a CDK4/6 inhibitor, PD-0332991 (Selleckchem) for 18 h to arrest in G1 phase. Cells were then washed twice with PBS and released in fresh media with treatment at a density of 0.5×10^6 cells/ml. Cells were collected at time point 6 and 12 h and solubilized using 0.5% sodium deoxycholate, 12 mM sodium lauryl sarcosine, and 50 mM triethylammonium bicarbonate pH 8.0 with 1 mL per 5×10^7 cells with trituration and vortexing. Cell lysates were heated at 95° C. for 5 min and water bath sonicated at RT for 5 min. Bicinchoninic acid protein assay (Pierce) was performed to determine protein concentration. […] Light, medium, and heavylabeled peptides were mixed 1:1:1, diluted with 0.1% formic acid to a final concentration of 3% acetonitrile and analyzed using 180 min data-dependent nLC-MS/MS on Thermo Orbitrap XL as later discussed. […] 5 uL of each SCX fraction was analyzed using 180 min data-dependent reverse-phase nLC-MS/MS on Thermo Orbitrap XL equipped with Eksigent Spark autosampler, Eksigent 2D nanoLC, and Phoenix ST Nimbus dual column source. […] Peptides were analyzed over 180 min linear gradient of 0-40% mobile phase B (97% acetonitrile, 3% dimethylsulfoxide, and 0.1% formic acid) at 300 nL/min. […]

ATM = ATM (Homo sapiens, UniProt Q13315); conditions: cited from earlier work
Chain of ATM (Q13315 whole entry, species assumed): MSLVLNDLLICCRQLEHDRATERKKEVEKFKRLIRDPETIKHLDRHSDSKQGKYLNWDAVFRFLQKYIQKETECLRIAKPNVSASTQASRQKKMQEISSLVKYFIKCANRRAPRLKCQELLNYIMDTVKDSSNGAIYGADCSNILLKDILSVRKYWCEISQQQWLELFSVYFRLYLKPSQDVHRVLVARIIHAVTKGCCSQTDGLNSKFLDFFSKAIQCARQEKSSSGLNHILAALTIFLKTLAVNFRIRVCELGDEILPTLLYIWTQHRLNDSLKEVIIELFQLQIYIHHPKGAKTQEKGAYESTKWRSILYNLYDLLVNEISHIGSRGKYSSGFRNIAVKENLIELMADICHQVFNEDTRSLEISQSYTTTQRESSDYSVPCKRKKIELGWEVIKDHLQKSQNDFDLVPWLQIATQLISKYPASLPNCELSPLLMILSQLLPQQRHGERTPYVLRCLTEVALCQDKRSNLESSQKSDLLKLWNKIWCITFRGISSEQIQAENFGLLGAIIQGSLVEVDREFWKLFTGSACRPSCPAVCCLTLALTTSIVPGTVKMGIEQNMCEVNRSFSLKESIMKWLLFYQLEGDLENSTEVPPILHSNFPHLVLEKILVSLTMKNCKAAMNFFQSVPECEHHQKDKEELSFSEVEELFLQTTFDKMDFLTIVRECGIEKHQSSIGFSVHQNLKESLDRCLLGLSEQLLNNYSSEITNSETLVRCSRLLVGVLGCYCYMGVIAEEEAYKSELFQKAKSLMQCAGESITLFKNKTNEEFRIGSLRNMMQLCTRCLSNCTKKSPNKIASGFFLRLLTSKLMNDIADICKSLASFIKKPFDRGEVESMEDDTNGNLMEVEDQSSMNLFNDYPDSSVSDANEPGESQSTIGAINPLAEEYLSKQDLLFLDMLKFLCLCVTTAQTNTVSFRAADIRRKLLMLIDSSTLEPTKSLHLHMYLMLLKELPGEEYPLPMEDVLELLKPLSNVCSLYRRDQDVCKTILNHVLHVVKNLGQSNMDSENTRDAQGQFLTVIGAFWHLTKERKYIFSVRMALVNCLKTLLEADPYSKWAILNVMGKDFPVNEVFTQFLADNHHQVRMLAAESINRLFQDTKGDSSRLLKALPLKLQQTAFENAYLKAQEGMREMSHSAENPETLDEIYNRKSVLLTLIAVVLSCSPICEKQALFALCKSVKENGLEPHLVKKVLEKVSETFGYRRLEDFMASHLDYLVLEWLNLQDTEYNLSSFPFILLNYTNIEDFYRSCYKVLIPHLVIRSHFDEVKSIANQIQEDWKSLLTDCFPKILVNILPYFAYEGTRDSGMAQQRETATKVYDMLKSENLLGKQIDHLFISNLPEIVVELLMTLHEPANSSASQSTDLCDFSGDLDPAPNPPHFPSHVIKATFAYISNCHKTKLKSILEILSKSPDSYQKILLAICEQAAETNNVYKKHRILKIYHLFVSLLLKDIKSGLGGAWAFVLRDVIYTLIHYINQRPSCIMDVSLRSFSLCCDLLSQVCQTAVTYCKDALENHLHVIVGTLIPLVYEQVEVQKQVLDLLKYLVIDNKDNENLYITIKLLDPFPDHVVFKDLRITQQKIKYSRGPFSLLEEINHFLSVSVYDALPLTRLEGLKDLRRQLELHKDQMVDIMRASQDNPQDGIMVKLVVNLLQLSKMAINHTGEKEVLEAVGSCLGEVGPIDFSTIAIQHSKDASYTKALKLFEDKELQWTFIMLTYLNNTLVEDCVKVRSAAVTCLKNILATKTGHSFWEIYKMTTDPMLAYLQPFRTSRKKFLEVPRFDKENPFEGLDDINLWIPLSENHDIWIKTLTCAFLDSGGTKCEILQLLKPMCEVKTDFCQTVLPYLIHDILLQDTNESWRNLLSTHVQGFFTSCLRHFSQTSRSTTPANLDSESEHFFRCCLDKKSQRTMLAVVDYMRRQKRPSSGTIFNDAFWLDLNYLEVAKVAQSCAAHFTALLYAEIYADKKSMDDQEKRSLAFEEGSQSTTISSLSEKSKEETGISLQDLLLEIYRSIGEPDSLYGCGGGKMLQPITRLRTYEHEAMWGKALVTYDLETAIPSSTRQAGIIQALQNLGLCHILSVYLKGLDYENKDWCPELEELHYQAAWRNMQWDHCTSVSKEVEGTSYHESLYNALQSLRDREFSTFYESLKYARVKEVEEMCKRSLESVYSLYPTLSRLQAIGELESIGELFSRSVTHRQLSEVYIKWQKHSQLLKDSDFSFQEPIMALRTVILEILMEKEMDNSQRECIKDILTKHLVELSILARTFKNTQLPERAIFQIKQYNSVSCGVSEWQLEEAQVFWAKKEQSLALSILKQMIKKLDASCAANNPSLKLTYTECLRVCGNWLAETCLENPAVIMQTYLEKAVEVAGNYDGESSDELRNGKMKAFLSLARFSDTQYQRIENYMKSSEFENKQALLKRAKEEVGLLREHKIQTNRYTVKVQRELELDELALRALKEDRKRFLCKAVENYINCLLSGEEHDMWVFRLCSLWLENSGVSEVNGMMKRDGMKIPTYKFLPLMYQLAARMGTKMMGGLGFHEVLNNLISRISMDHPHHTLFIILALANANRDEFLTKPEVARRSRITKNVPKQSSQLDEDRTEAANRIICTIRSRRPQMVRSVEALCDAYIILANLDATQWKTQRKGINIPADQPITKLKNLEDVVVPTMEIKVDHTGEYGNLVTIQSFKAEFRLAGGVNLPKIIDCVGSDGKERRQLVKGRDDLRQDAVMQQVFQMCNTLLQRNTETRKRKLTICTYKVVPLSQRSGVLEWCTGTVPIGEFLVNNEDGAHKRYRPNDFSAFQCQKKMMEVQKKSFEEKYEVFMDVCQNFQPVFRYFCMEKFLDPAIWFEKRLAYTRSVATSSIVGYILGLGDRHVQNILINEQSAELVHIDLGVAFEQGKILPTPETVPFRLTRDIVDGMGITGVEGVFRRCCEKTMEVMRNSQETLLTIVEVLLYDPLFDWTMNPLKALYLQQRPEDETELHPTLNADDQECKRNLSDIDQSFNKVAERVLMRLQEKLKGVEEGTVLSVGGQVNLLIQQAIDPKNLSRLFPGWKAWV

CEM T-ALL = experiment: Cell-Titer-Glo viability assay, 72 h; type: cell-based; conditions: read-out: IC50 of VE-822
Procedure: as §1

PANC-1 PDAC cells = experiment: Cell-Titer-Glo viability assay, 72 h; type: cell-based; conditions: Homo sapiens, PANC-1, read-out: IC50 of VE-822
Procedure: as §1

NC(=S)N/N=C/c1ncccc1N [3-AP, 3-aminopyridine-2-carboxyaldehyde-thiosemicarbazone]
RS and DNA damage biomarker expression (ssDNA, pH2A.X), words (CEM T-ALL cells): minimally induced
effect on de novo dCTP pool (CEM cells [1]; 3-AP at 500 nM, 18 h): did not affect
increase in salvage dCTP pool (CEM cells [1]; 3-AP at 500 nM, 18 h): 2 fold
dCTP pool [2]: increased their dCTP pool
solubility [3]: < 300 µg/mL
IC50 (leukemia cell growth): 1310 nM
increase in ^3H-FAC uptake [4]: ~2.5 fold
IC50 lower than the other RNR inhibitors (dT, GaM, HU) (CEM cells [5]): 50 to 150 fold

Nc1nc2nc[nH]c2c(=S)[nH]1 [6-thioguanine]
DNA-G biosynthesis (CEM-R-EYFP): remained unaffected
decrease of de novo and salvage pathway labeling of DNA-G (CEM-R-HPRT): ~10 fold

CNCc1ccc(-c2cc(-c3nc(-c4ccc(S(=O)(=O)C(C)C)cc4)cnc3N)on2)cc1 [VE-822]
efficacy of single agent therapy in vivo [6]: not capable of eradicating p185 cells in vivo; also recorded: marginally efficacious
effect on dCTP pool levels compared to untreated (CEM cells [1]; G1 released CEM cells): did not significantly impact
total DNA-C labeling, less than untreated controls (CEM cells [1]; G1 released CEM cells): 30%
decrease in the number of cells in S2 (CCRF-CEM T-ALL cells): 16%
phosphorylation of Chk1 and Claspin compared to untreated cells [7]: decreased phosphorylation
IC50 (ATM): 34000 nM
IC50 (CEM T-ALL): ~300 nM
IC50 (PANC-1 PDAC cells): 3000 nM
